Like-named read-outs stand apart in the source and are kept apart here.
Columns and labels:
ATF6 [1] = assay type: cell-based, mouse
Procedure: (§1) Mouse Neuro-2a cells were cultured using standard tissue culture techniques and maintained in 45% DMEM, 45% OptiMEM and 10% FBS. Plasmid concentrations used for transfection were as follows: 500 ng of each nAChR subunit, 75 ng of pCS2-mcherry, 250 ng of Sec24D constructs, 100 ng of pDsRed2-ER, 250 ng of GaIT-eCFP and 500 ng of ATF6-eGFP. 90,000 cells were plated in poly-D-lysine coated 35 mm MatTek glass bottom imaging dishes. The following day, plasmid DNA was mixed with cationic lipids by adding appropriate DNA concentrations to 4 μl of Expressfect transfection reagent in 200 μl DMEM final volume and incubated for 20 min at room temperature to form cationic lipid-DNA complexes. DMEM+DNA-lipid complexes were added to Neuro-2a cells in 1 ml of DMEM+10% FBS and incubated at 37° C. for 4 h. Dishes were rinsed 2× with DMEM, then filled with 3 ml of DMEM+10% FBS and incubated at 37° C. for 48 h. Nicotine, cytisine or DHβE was added at appropriate concentrations during the change of medium following 4 h incubation with Expressfect-plasmid DNA complexes.

ATF6 [2] = conditions: 24 hr, 0.1 μM nicotine
Procedure: (§2) Cortical neurons were extracted from day 17 mouse embryos; 150,000 cells were plated in each 35 mm poly-l-lysine-coated glass bottom culture dish in a solution containing Neurobasal, B27, and Glutamax supplemented with 3% equine serum. On day four of culture, neurons were treated with 1 μM cytosine arabinoside. Neurons were maintained via 50% exchange with feeding medium (Neurobasal, B27, and Glutamax) twice per wk. Neurons were transfected five days after plating as follows: 1 μg of each nAChR subunit plasmid was incubated with 20 μg Nupherin Neuron in 400 μl of Neurobasal medium. 10 μL of Lipofectamine 2000 was separately incubated for 15 min in 400 μl Neurobasal medium. The two solutions were combined and incubated for 45 min at room temperature, then applied to cells. After 1 hr incubation, the total medium was replaced with fresh 2 ml medium with or without 0.1 μM nicotine. For immunostaining, cultures were fixed the following day with 4% paraformaldehyde (10 min), permeabilized in 0.02% Tris-buffered saline (TBS)-TritonX (15 min) and blocked in 10% goat serum (30 min). Following 2×TBS washes, the appropriate primary antibody in 1% goat serum was applied overnight at 4° C. The following day cultures were rinsed in TBS, and incubated in 1% goat serum containing secondary antibody (1:5000) (30 min). Cells were rinsed in TBS and imaged immediately.
(§3) Immunostaining employed ATF6 mouse monoclonal (Abcam, 11909, 1:50 dilution), rabbit polyclonal peIF2α and total eIF2α (Cell Signaling Technology, 9721 and 5324, both 1:200 dilution). Alexa 488-labeled secondary antibodies were used (Invitrogen, donkey anti-mouse and goat anti-rabbit).

eIF2α = conditions: 24 h, 0.1 μM nicotine; for whole cell and cytoplasmic peIF2α fluorescence: p=0.06
Procedure: as §2, §3

ER exit sites (ERES) = assay type: cell-based, mouse
Procedure: as §1
Neuro-2a cells were co-transfected with 500 ng each of α4-mcherry and β2-wt nAChR subunits and 250 ng of the ERES marker, Sec24D-eGFP. Each cell was focused to a plane where the maximum ERES were visualized. Sequential images of eGFP and mcherry fluorescence were obtained and linearly unmixed. For quantification, ERES regions of interest (ROIs) were demarcated using intensity-based thresholding and counted for each cell using the particle analysis feature in ImageJ version 1.44 or later. The fluorescence intensity was obtained for each ERES body within the cells and average ERES intensity was plotted. Error bars for ERES measurements are ±standard error of mean (SEM) and p values are based on a 2-tailed t test.

Neuro-2a cells [3] = assay type: cell-based, mouse
Procedure: (§4) Neuro-2a cells were transfected with α4-eGFP (500 ng)+β2wt (500 ng)+GaIT-mcherry (250 ng) or pDSred2-ER (100 ng) and cells were incubated for 48 h with appropriate concentrations of nicotine, cytisine or DHβE.
In ImageJ, background was subtracted, and DSred2-ER fluorescence was thresholded and demarcated for each cell.

Neuro-2a cells [4] = assay type: cell-based, mouse; remark: listed apart in the source
Procedure: as §4
Two color fluorescence signals were separated with a dichroic and optical filters aligned in the emission path where green and red emission was separately aligned to the two halves of an EMCCD. Post-acquisition processing of images used Metamorph to demarcate TGN bodies and to extract number, size and intensity statistics.

α4β2 nAChRs [5] = molecular target: T1, α4β2 nAChRs (Mus musculus, UniProt O70174+Q9ERK7); conditions: chronic nicotine, 200 nM for 24 hr
Description: We used superecliptic phluorin (SEP) fused to the C-terminus of alpha4 nicotinic receptors (nAChRs) to examine the subcellular distribution and trafficking dynamics of receptors expressed in cortical neurons. SEP is a pH-sensitive version of green fluorescent protein (GFP) that undergoes 488 nm excitation at neutral pH (˜7.4), but loses this excitation maximum under acidic conditions (12). As a result, SEP neither photobleaches nor fluoresces at low pH but regains its fluorescence at neutral and basic pH. Tagging of α4 on the extracellular C-terminus results in the orientation of SEP on the lumenal side of most organelle types in the secretory pathway. While the endoplasmic reticulum (ER) and cis-Golgi have lumenal pH of ˜7.2 and ˜6.7, respectively, the lumen of both the trans-Golgi network and secretory vesicles is much more acidic (pH<6.5) (39). If one illuminates via total internal reflection (TIRF) microscopy, only those receptors resident in nearly neutral organelles close to the plasma membrane, or inserted in the plasma membrane, are visible within the excitation field. Thus, receptors in the later stages of the secretory pathway neither fluoresce nor photobleach due to the acidic environment. […]

α4β4 receptors = α4β4 receptors (Mus musculus, UniProt O70174+Q8R493); conditions: acute nicotine, 1 μM
Procedure: Additional experiments examined the effect of acute nicotine at a higher concentration (1 μM) on α4β4 receptors as well.

α4β2 nAChRs [6] = molecular target: T1, α4β2 nAChRs
Description: For NFRET experiments, Neuro-2a cells were transfected with GaIT-eCFP+α4-mcherry+β2-eGFP subunits. GaIT-eCFP was used to label the TG, TGN (Schaub et al., 2006). Cells transfected with α4-mcherryβ2wt or α4wtβ2-eGFP nAChRs were included in every imaging session to control for pixel saturation and spectral bleedthrough. Live cells were imaged using an Eclipse C1si laser scanning confocal microscope. During image acquisition, cells were focused to a plane where the GaIT-eCFP fluorescence was best visualized. Images with emission spectra for eCFP, eGFP and mcherry were acquired in 5-nm bins between 470 and 620 nm. 439, 488 and 561 nm laser lines were used to excite eCFP, eGFP and mcherry respectively. Images were linearly unmixed using reference spectra for eCFP, eGFP and mcherry with emission maxima at 477, 508 and 608 nm. Reference spectra were acquired from Neuro-2a cells transfected with either GaIT-eCFP or α4-mcherryβ2wt or α4wtβ2-eGFP during the same imaging session. Linear unmixing was used to separate all three emission spectra from each image. Linearly unmixed images were compiled into donor spectral bleed-through stacks, acceptor spectral bleed-through stacks, and sample image stacks.
The PixFRET ImageJ plugin was used to determine the eGFP and mcherry spectral bleedthrough (BT) values and to calculate the net FRET (nF) (equation 1) and normalized FRET (NFRET) at each pixel. With the background and bleed-through corrections set, the nF for each pixel as described by equation 1 was calculated and the data were presented as 32-bit images. nF was divided by the square root of eGFP and mcherry intensities (equation 2) to obtain the normalized FRET (NFRET) value at each pixel. FRET normalization was used to control for large differences in fluorophore expression within subcellular regions and between different cells in a dish.
where, nF=net FRET, IFRET=mcherry sensitized emission with 488 nm excitation, IeGFP=eGFP emission with 488 nm excitation, BTeGFP=spectral bleedthrough of eGFP emission into mcherry emission spectra at 488 nm excitation, Imcherry=mcherry emission with 561 nm excitation and BTmcherry=spectral bleedthrough of mcherry emission into eGFP emission spectra at 561 nm excitation. IFRET, IeGFP and Imcherry were obtained from Neuro-2a cells transfected with GaIT-eCFP+α4-mcherry+β2-eGFP. BTeGFP and BTmcherry values were obtained from Neuro-2a cells transfected with α4-mcherry+β2wt and α4wt+β2-eGFP respectively.
Histograms of NFRET (x-axis) versus number of pixels (y-axis) of each imaged cell were compiled for either the whole cell sections or the TG, TGN ROIs, demarcated by intensity-based thresholding of GaIT-eCFP fluorescence. Frequency histograms obtained in this way (omitting values of zero) were merged for all cells in each experimental group and fitted to two Gaussian components such that a minimum goodness of fit (R^2) value of 0.995 was achieved. Ratios of area under the curve for the two Gaussian components with high and low mean NFRET values were used to determine changes in receptor stoichiometry between experimental groups: NFRET histograms were fitted to Gaussian components, yielding the total pixel area under either the A1 (low mean NFRET fit) or A2 (high mean NFRET fit) components. For quantitative measurements of stoichiometry, we compared the fractional area (FA) for the low NFRET component in each case as given by the following equation:
where, FA=fractional area, A1=area under the curve for low mean NFRET Gaussian component and A2=area under the curve for high mean NFRET Gaussian component.
Due to variability resulting from cell passage number, we imaged untreated control cells on the same day to compare and evaluate the effects of drug exposure on stoichiometry.

T1 sequence (O70174 31-629): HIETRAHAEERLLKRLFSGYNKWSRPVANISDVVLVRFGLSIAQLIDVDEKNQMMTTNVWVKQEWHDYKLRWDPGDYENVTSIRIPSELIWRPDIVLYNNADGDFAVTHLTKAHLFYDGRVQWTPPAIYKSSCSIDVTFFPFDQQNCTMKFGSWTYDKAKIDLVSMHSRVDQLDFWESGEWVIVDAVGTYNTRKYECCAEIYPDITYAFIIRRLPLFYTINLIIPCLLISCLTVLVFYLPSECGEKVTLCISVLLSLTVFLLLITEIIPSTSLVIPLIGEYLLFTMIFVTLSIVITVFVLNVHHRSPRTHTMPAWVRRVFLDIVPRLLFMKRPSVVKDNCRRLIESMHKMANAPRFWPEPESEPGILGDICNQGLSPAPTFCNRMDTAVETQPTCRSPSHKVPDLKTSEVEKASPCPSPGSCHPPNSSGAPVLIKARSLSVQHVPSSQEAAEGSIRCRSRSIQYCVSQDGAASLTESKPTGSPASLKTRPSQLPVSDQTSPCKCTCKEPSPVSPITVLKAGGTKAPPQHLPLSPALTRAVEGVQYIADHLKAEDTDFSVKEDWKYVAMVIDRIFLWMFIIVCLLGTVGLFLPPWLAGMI
T1 sequence (Q9ERK7 26-501): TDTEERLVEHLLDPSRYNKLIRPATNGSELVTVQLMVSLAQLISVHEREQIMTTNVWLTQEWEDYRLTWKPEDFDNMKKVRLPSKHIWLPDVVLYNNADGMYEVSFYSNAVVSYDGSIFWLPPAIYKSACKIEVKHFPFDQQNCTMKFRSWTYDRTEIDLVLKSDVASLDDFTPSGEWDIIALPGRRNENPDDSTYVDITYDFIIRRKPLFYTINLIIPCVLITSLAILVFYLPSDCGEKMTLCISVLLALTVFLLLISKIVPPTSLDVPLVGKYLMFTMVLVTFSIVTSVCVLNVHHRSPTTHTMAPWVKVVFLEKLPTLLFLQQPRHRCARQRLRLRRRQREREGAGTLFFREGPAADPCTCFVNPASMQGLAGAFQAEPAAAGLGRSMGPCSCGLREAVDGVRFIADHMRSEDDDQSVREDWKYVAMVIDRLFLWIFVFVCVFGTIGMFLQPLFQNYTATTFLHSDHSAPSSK
Sequence of α4β4 receptors (O70174 31-629): as the sequence (O70174 31-629) above
Sequence of α4β4 receptors (Q8R493 21-495): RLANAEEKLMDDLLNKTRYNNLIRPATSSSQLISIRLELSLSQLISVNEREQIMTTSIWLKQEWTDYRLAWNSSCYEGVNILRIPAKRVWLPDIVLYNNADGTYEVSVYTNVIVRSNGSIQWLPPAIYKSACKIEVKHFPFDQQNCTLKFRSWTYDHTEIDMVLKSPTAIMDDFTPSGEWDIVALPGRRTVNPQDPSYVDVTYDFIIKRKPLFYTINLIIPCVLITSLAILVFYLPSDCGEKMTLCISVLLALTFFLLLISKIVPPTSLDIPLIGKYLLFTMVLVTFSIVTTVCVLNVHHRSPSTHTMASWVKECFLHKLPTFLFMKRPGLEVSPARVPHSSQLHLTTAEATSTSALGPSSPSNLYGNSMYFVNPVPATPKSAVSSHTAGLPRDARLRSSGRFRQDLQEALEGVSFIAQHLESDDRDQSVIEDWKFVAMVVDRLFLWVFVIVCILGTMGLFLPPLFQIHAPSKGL

In the case of `CN1CCCC1c1cccnc1` (stereo not drawn) [Nicotine, nicotine], the “reduction in the ratio of nuclear to whole cell ATF6-eGFP fluorescence” value (ATF6 [1]) is reported as ~25%, the “reduction in the nucleus to whole cell ATF6 fluorescence ratio” value (ATF6 [2]; compared to untreated cells) is reported as 50% and the “α4-mcherryβ2wt-expressing cells showing nuclear ATF6 localization” value (ATF6 [2]; 56% in the absence of nicotine) is reported as 14%. For the same compound, the “total eIF2α fluorescence within the cytoplasm or nucleus” value (eIF2α) was “did not affect”, the “total eIF2α fluorescence within the cytoplasm or nucleus” value (eIF2α; listed as nicotine) was “without affecting” and the “whole cell and cytoplasmic peIF2α fluorescence” value (eIF2α) was “near significant reduction”. The “whole cell and cytoplasmic peIF2α fluorescence” value (eIF2α; listed as nicotine) was “trend towards reduction”, the “increase in ERES fluorescence / formation of ERES” value (ER exit sites (ERES)) was ~2 fold and the “effect on peripheral ER area (in words)” value (Neuro-2a cells [3]) was “increased”. The “increase in the average ER area” value (Neuro-2a cells [3]) was 1.7 fold, the TGN intensity (Neuro-2a cells [4]) was “no effect” and the “effect on the average intensity of TGN bodies (in words)” value (Neuro-2a cells [4]) was “did not affect”. For the same compound, the “effect on the number of TGN bodies (in words)” value (Neuro-2a cells [4]) was “increased”, the “increase in the average number of TGN bodies per cell” value (Neuro-2a cells [4]) was ~2 fold and the “increase in the number of insertion events, α4β2 nAChRs” value (α4β2 nAChRs [5]) was ~2 fold. The “Fnic/F0 (SEP fluorescence, receptors in the membrane)” value (α4β4 receptors) was 65%+/−0.03, the “TG+TGN FA (fractional area of low NFRET component)” value (α4β2 nAChRs [6]) was 0.80 and the “whole cell FA (fractional area of low NFRET component)” value (α4β2 nAChRs [6]) was 0.74.
